Target: T1, ER-alpha (WT) (Homo sapiens, UniProt P03372)
T1 construct: endogenous in cells; host or cells: MCF7 breast cancer cells
T1 sequence (P03372 1-595): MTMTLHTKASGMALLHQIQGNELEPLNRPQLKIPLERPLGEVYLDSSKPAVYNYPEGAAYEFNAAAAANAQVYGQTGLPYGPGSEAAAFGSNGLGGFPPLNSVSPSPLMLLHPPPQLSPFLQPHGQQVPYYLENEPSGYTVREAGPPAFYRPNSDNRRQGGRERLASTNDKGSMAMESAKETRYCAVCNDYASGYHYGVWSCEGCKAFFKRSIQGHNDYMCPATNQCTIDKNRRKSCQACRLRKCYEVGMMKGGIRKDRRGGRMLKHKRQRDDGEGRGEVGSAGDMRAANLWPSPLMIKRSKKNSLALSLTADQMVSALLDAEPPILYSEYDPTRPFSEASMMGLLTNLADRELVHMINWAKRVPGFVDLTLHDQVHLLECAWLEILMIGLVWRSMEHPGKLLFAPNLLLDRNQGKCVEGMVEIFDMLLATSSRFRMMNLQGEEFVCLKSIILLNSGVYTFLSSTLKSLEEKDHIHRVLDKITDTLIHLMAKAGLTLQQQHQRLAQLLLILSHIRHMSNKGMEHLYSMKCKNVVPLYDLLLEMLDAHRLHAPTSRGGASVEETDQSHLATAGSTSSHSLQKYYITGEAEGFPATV
Test: Breast Cancer Cell ERa High Content Fluorescence Imaging Degradation Assay (MCF7 HCS)
Format: cell-based
Details: MCF7 breast cancer cells, 4 hours incubation; for EC50: inflexion point of curve; for ERalpha (WT) MCF7 HCS (S inf): plateau of the maximal effect, DMSO and Fulvestrant define 0% and 100% changes in ESR1
Experimental: MCF7 breast cancer cells were seeded on day 1 at a density of 10,000 cells per well in 384 well poly-lysine coated tissue culture plate (Greiner #T-3101-4), in 50 μL/well RPMI (phenol red free), 10% FBS (Charcoal stripped), containing L-glutamine. […] Compounds and controls were dispensed using a Labcyte Echo acoustic dispenser to dispense compounds with a predefined serial dilution (1.8×, 10 point, in duplicate) and appropriate backfill and control compounds (final total volume transferred was 417.5 nL and compound dispense volume ranges from 2.5 nL to 417.5 nL; 0.84% DMSO (v/v) final), ultimately producing a concentration range from 0.05 nM to 835 nM. Cell plates were incubated at 37° C., for 4 hours. Fixation and permeabilization were carried out using a Biotek EL406 plate washer and dispenser as follows. Cells were fixed by addition of 15 μL of 16% paraformaldehyde (Electron Microscopy Sciences #15710-S) directly to the 50 μL cell culture medium in each well using the peristaltic pump 5 μL cassette on a Biotek EL406 (final concentration of formaldehyde was 3.7% w/v). Samples were incubated 30 minutes. Well contents was aspirated and 50 μL/well of Phosphate Buffered Saline (PBS) containing 0.5% w/v bovine serum albumen, 0.5% v/v Triton X-100 (Antibody Dilution Buffer) was added to each well. Samples were incubated for 30 minutes. Well contents were aspirated and washed 3 times with 100 μL/well of PBS. Immunofluorescence staining of estrogen receptor alpha (ESR1) was carried out using a Biotek EL406 plate washer and dispenser as follows. The well supernatant was aspirated from the wells and 25 μL/well of anti-ESR1 mAb (F10) (Santa Cruz sc-8002) diluted 1:1000 in Antibody Dilution Buffer was dispensed. Samples were incubated for 2 hours at room temperature. Samples were washed 4 times with 100 μL/well of PBS. 25 μL (microliters)/well of secondary antibody solution (Alexafluor® 488 conjugate anti-mouse IgG (LifeTechnologies #A21202) diluted 1:1000 and Hoechst 33342 1 μg/mL diluted in Antibody Dilution Buffer) were dispensed into each well. Samples were incubated for 2 hours at room temperature. Samples were washed 3 times with 100 μL/well of PBS using a Biotek EL406. Quantitative fluorescence imaging of ESR1 was carried out using a Cellomics Arrayscan V® (Thermo). Fluorescence images of the samples (Channel 1: XF53 Hoechst (DNA stain); Channel 2: XF53 FITC (ESR1 stain)) were acquired using a Cellomics VTI Arrayscan using the Bioapplication “Compartmental Analysis” using the auto-exposure (based on DMSO control wells) setting “peak target percentile” set to 25% target saturation for both channels. Channel 1 (DNA stain) was used to define the nuclear region (Circ). Measurements of “Mean_CircAvgIntCh2”, which is the Alexafluor 488 fluorescence intensity (ESR1) within the nuclear region, was measured on a per cell basis and averaged over all the measured cells. Data analysis was carried out using Genedata Screener Software, with DMSO and 5 nM Fulvestrant treated samples being used to define the 0% and 100% changes in ESR1. The “Robust Fit” method was used to define the inflexion point of curve (EC50) and the plateau of the maximal effect (Sinf).

For C[C@@H]1Cc2cc(CO)ccc2[C@@H](c2ccc(OCCN3CC(CF)C3)cc2)N1CC(F)(F)CO [Example 172, 2,2-Difluoro-3-((1R,3R)-1-(4-(2-(3-(fluoromethyl)azetidin-1-yl)ethoxy)phenyl)-6-(hydroxymethyl)-3-methyl-3,4-dihydroisoquinolin-2(1H)-yl)propan-1-ol], the EC50 was 0.14 nM and the “ERalpha (WT) MCF7 HCS (S inf)” value was −99%.

In the case of C[C@H](CN1CCc2cc(O)ccc2[C@@]1(C)c1ccc(OCCN2CC(CF)C2)cc1)C(=O)O [Example 137, (R)-3-((R)-1-(4-(2-(3-(fluoromethyl)azetidin-1-yl)ethoxy)phenyl)-6-hydroxy-1-methyl-3,4-dihydroisoquinolin-2(1H)-yl)-2-methylpropanoic acid], the EC50 is reported as 40 nM and the “ERalpha (WT) MCF7 HCS (S inf)” value is reported as −45%.

For C[C@@H]1Cc2cc(CO)ccc2[C@@H](c2ccc(NC3CN(CCCF)C3)cc2)N1CC(F)(F)F (single isomer, unassigned) [Example 170], the EC50 was 0.088 nM and the “ERalpha (WT) MCF7 HCS (S inf)” value was −100%.

In the case of Oc1ccc2c(c1)CCN(CC(F)(F)F)[C@@H]2c1ccc(OCCN2CC(CF)C2)cc1 (single isomer, unassigned) [Example 154], the EC50 is reported as 0.024 nM and the “ERalpha (WT) MCF7 HCS (S inf)” value is reported as −99%.

For C[C@@H]1Cc2cc(S(N)(=O)=O)ccc2[C@@H](c2ccc(OCCN3CC(CF)C3)cc2)N1CC(F)(F)CO (single isomer, unassigned) [Example 173], the EC50 was 2.9 nM and the “ERalpha (WT) MCF7 HCS (S inf)” value was −98%.

Work on C[C@H]1Cc2cc(O)ccc2[C@H](c2ccc(OCCN3CC(CF)C3)cc2)N1S(C)(=O)=O [Example 117, (1S,3S)-1-[4-[2-[3-(fluoromethyl)azetidin-1-yl]ethoxy]phenyl]-3-methyl-2-methylsulfonyl-3,4-dihydro-1H-isoquinolin-6-ol] yielded an EC50 of at least 100 nM.

In the case of CC(C)(F)C(=O)N1CCc2cc(O)ccc2[C@H]1c1ccc(OCCN2CC(CF)C2)cc1 (single isomer, unassigned) [Example 104], the EC50 is reported as 0.741 nM and the “ERalpha (WT) MCF7 HCS (S inf)” value is reported as −90%.

FCC1CN(CCOc2ccc([C@@H]3c4ccc(-c5cc[nH]n5)cc4CCN3CC(F)(F)F)cc2)C1 [Example 152, (1R)-1-[4-[2-[3-(fluoromethyl)azetidin-1-yl]ethoxy]phenyl]-6-(1H-pyrazol-3-yl)-2-(2,2,2-trifluoroethyl)-3,4-dihydro-1H-isoquinoline] was tested, and the EC50 was 17 nM and the “ERalpha (WT) MCF7 HCS (S inf)” value was −91%.

With NC(=O)c1ccc2c(c1)CCN(CC(F)(F)F)[C@@H]2c1ccc(OCCN2CC(CF)C2)cc1 [Example 142, (1R)-1-[4-[2-[3-(fluoromethyl)azetidin-1-yl]ethoxy]phenyl]-2-(2,2,2-trifluoroethyl)-3,4-dihydro-1H-isoquinoline-6-carboxamide] the EC50 was 29 nM and the “ERalpha (WT) MCF7 HCS (S inf)” value was −79%.

For C[C@]1(c2ccc(OCCN3CC(CF)C3)cc2)c2ccc(O)cc2CCN1CC(F)(F)CO [Example 129, (S)-2-(2,2-difluoro-3-hydroxypropyl)-1-(4-(2-(3-(fluoromethyl)azetidin-1-yl)ethoxy)phenyl)-1-methyl-1,2,3,4-tetrahydroisoquinolin-6-ol], the EC50 was 2.7 nM and the “ERalpha (WT) MCF7 HCS (S inf)” value was −101%.

C[C@H]1Cc2cc(CO)ccc2[C@H](c2ccc(OCCN3CC(CF)C3)cc2)N1CC(F)(F)CO (single isomer, unassigned) [Example 171] was tested, and the EC50 was 23 nM and the “ERalpha (WT) MCF7 HCS (S inf)” value was −63%.

In the case of C[C@@H]1Cc2cccc(O)c2[C@@H](c2ccc(OCCN3CC(CF)C3)cc2)N1CC(F)(F)CO (single isomer, unassigned) [Example 167], the EC50 is reported as 22 nM and the “ERalpha (WT) MCF7 HCS (S inf)” value is reported as −82%.

With C[C@H]1CN(S(C)(=O)=O)[C@H](c2ccc(OCCN3CC(CF)C3)cc2)c2ccc(O)cc21 [Example 121, (1R,4R)-1-[4-[2-[3-(fluoromethyl)azetidin-1-yl]ethoxy]phenyl]-4-methyl-2-methylsulfonyl-3,4-dihydro-1H-isoquinolin-6-ol] the EC50 was 18.1 nM and the “ERalpha (WT) MCF7 HCS (S inf)” value was −70%.

In the case of Oc1ccc2c(c1)CCN(CC(F)(F)F)C2c1c(F)cc(OC2CN(CCCF)C2)cc1F (single isomer, unassigned) [Example 143], the EC50 is reported as 22 nM and the “ERalpha (WT) MCF7 HCS (S inf)” value is reported as −100%.

With Oc1ccc2c(c1)CCN(CC(F)(F)F)[C@@H]2c1c(F)cc(OCCN2CC(CF)C2)cc1F [Example 134, (1S)-1-[2,6-difluoro-4-[2-[3-(fluoromethyl)azetidin-1-yl]ethoxy]phenyl]-2-(2,2,2-trifluoroethyl)-3,4-dihydro-1H-isoquinolin-6-ol] the EC50 was 0.013 nM and the “ERalpha (WT) MCF7 HCS (S inf)” value was −98%.

For C[C@H]1Cc2c(ccc3[nH]ncc23)[C@H](c2c(F)cc(OCCN3CC(CF)C3)cc2F)N1CC(C)(C)F (single isomer, unassigned) [Example 124], the EC50 was 3.23 nM and the “ERalpha (WT) MCF7 HCS (S inf)” value was −90%.

For CC(C)(F)CN1CCc2cc(O)ccc2[C@@H]1c1ccc(OCCN2CC(CF)C2)cc1 [Example 105, (S)-2-(2-fluoro-2-methylpropyl)-1-(4-(2-(3-(fluoromethyl)azetidin-1-yl)ethoxy)phenyl)-1,2,3,4-tetrahydroisoquinolin-6-ol], the EC50 was 0.146 nM and the “ERalpha (WT) MCF7 HCS (S inf)” value was −98%.

In the case of C[C@H]1Cc2cc(O)ccc2[C@H](c2ccc(OCCN3CC(CF)C3)cc2)N1CC(F)(F)F (single isomer, unassigned) [Example 131], the EC50 is reported as 1.4 nM and the “ERalpha (WT) MCF7 HCS (S inf)” value is reported as −96%.

For Oc1ccc2c(c1)CCN(CC(F)(F)F)[C@H]2c1c(F)cc(OCCN2CC(CF)C2)cc1F [Example 133, (1R)-1-[2,6-difluoro-4-[2-[3-(fluoromethyl)azetidin-1-yl]ethoxy]phenyl]-2-(2,2,2-trifluoroethyl)-3,4-dihydro-1H-isoquinolin-6-ol], the EC50 was 17 nM and the “ERalpha (WT) MCF7 HCS (S inf)” value was −90%.

In the case of CC(C)(F)CN1CCc2cc(O)ccc2[C@@]1(C)c1ccc(OCCN2CC(CF)C2)cc1 (single isomer, unassigned) [Example 108], the EC50 is reported as 0.0344 nM and the “ERalpha (WT) MCF7 HCS (S inf)” value is reported as −98%.

FCC1CN(CCOc2ccc([C@H]3c4ccc(N5CCOCC5)cc4CCN3CC(F)(F)F)cc2)C1 [Example 147, 4-[(1S)-1-[4-[2-[3-(fluoromethyl)azetidin-1-yl]ethoxy]phenyl]-2-(2,2,2-trifluoroethyl)-3,4-dihydro-1H-isoquinolin-6-yl]morpholine] gave an EC50 of at least 100 nM.

C[C@@H]1Cc2cc(O)ccc2[C@@H](c2ccc(OCCN3CC(CF)C3)cc2)N1S(C)(=O)=O [Example 116, (1R,3R)-1-[4-[2-[3-(fluoromethyl)azetidin-1-yl]ethoxy]phenyl]-3-methyl-2-methylsulfonyl-3,4-dihydro-1H-isoquinolin-6-ol] was tested, and the EC50 was 0.3 nM and the “ERalpha (WT) MCF7 HCS (S inf)” value was −93%.

C[C@@]1(c2ccc(OCCN3CC(CF)C3)cc2)c2ccc(O)cc2CCN1CC(F)(F)F [Example 113, (1R)-1-[4-[2-[3-(fluoromethyl)azetidin-1-yl]ethoxy]phenyl]-1-methyl-2-(2,2,2-trifluoroethyl)-3,4-dihydroisoquinolin-6-ol] was tested, and the EC50 was 0.0608 nM and the “ERalpha (WT) MCF7 HCS (S inf)” value was −99%.

From US9969732B2, “Tetrahydroisoquinoline estrogen receptor modulators and uses thereof” (Genentech, Inc., priority 2016, dated 2018)
